The target of one test is human plasma kallikrein (Homo sapiens, UniProt P03952). The experiment in a line: Kallikrein inhibition FLINT assay with quenched AMC peptide substrate Z-Gly-Pro-Arg-AMC (end point EP or kinetic KIN reads). It counts as biochemical. The procedure, abridged:
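Enzyme and compound were preincubated 30 min before adding 50 μM AMC substrate in pH 7.5 Tris/NaCl/CaCl2/BSA/CHAPS buffer. AMC release was read at 30 min endpoint or every 5 min.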

The target of the next test is Factor XIa (Homo sapiens, UniProt P03951). In words: Factor XIa inhibition FLINT assay with fluorophore-quencher peptide substrate 5Fam-[…]-K5Tamra (end point EP or kinetic KIN reads). It counts as biochemical. The following applies: end point read at 30 min; read-out: FXIa (EP) IC50. An excerpt:
Factor XIa inhibition assay utilizing a fluorophore-quencher pair peptide substrate A fluorescence intensity (FLINT) based assay was used to monitor inhibition of Factor XIa. The peptide substrate, 5Fam-[…]-K5Tamra (purchased from New England Peptide) was chosen based on the FXI sequence. Conversion of zymogen FXI to its activated form, FXIa, occurs by proteolytic cleavage by […] at two sites, Arg146 and Arg180. The custom peptide used in this assay was based on the Arg146 cleavage site of FXI. The peptide substrate was designed with a fluorophore-quencher pair, where the fluorescence is quenched until FXIa cleaves the 8-mer peptide after the Arg residue.
Test compound(s) were run in an 11-point, 3-fold serial dilution with a final top compound concentration of 100 nM. Final DMSO in assay was 2%. FXIa was preincubated with compound for 30-minutes and then substrate was added to initiate the reaction. The assay was run with either end point (EP) reads at 30 min or kinetic (KIN) reads at 5 min intervals over 30 minutes. […] More specifically, the assay was run as follows: • 100 nL of 0.01 mM test compound was dispensed into black 384-well non-binding Greiner BioOne 784900 plate for 0.1 μM final concentration; • 5 μL of 1× assay buffer was dispensed to column 24 (low control) and 5 μL 2× Factor XIa solution was dispensed to columns 1-23 (column 23 high control); • the plate was centrifuged with a “cover” plate at 500 rpm for 1 min • the plate was pre-incubated for 30 minutes at room temperature with plate covered; • 5 μL of 2×5Fam-[…]-K5Tamra peptide substrate was dispensed into the entire plate, columns 1-24; • the plate was centrifuged with a “cover” plate at 500 rpm for 1 min; • the plate was read monitoring fluorescence intensity on the BMG PHERAStar at room temperature, using fluorescence module 485 nm/520 nm.
Percent inhibition (IC50) curves were generated per compound tested, and data was analyzed using a 4-parameter logistic fit using GeneData Screener. The relative fluorescence unit (RFU) values were normalized to percent inhibition using the following equation: % inhibition=((HC−LC)−(compound−LC)/(HC−LC))*100
An 11-point dose response curve for the test compound(s) was generated using GENDATA to determine IC50 value based on the following equation: Y=Bottom+(Top−Bottom)/(1+10^((log IC50−X)*HillSlope))
Results listed in columns with […] designation were measured using endpoint reads where a single fluorescence reading was measured for each well at a 30 min timepoint.

[1] abbreviates: end point read at 30 min, read-out: Kallikrein (EP) IC50.
The mark [2] stands for this setting: kinetic reads at 5 min intervals over 30 min, read-out: Kallikrein (KIN) IC50.

Like-named read-outs stand apart in the source and are kept apart here.

human plasma kallikrein, sequence (P03952 391-638 limits assumed): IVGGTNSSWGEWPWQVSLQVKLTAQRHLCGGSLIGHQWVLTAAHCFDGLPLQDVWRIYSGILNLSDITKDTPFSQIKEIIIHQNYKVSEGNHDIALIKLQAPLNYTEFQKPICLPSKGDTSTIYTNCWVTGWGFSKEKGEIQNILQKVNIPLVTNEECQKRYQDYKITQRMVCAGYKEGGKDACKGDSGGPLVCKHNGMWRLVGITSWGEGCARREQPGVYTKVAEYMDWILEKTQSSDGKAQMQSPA
human plasma kallikrein, sequence (P03952 20-390 partner limits assumed): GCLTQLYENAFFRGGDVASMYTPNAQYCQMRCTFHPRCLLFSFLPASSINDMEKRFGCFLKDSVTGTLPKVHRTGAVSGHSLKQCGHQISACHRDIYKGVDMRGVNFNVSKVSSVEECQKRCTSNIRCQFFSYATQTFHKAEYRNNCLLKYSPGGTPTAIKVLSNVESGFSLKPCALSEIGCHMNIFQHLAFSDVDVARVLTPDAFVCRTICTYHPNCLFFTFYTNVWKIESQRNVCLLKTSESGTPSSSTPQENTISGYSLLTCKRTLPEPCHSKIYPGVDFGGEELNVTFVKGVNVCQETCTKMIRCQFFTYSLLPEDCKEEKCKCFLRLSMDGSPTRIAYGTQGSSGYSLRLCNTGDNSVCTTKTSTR
Factor XIa, sequence (P03951 388-625 limits assumed): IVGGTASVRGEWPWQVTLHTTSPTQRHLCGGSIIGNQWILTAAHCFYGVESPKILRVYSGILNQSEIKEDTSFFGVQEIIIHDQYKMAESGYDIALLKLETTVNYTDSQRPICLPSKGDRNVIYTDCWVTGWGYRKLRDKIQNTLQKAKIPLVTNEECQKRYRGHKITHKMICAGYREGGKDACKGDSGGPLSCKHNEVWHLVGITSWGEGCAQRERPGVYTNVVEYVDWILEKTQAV
Factor XIa, sequence (P03951 19-387 partner limits assumed): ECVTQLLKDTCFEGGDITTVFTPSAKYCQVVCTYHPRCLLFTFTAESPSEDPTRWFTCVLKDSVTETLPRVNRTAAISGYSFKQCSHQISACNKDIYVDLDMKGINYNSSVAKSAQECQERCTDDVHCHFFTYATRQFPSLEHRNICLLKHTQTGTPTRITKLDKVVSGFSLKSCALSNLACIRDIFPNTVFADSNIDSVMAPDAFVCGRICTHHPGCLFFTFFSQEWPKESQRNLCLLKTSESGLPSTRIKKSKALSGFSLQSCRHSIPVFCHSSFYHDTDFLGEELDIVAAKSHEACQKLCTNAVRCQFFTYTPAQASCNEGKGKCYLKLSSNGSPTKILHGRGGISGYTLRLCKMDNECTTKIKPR

For orientation: IC50 means the point on the concentration scale where inhibition reaches its midpoint. In the case of `O=C(O)c1cccc(-c2cnn(C(CC3CC3)c3ccc(-c4cc(Cl)ccc4-n4cnnn4)c[n+]3[O-])c2)c1` (stereo not drawn) [Example P3], the figures for the IC50 at human plasma kallikrein (setting [1]) and on Factor XIa were 98.2 nM and 9.4 nM, respectively.

Regarding `COC(=O)Nc1ccc(-c2cnn(C(CC3CC3)c3ccc(-c4cc(Cl)ccc4-n4cc(Cl)nn4)c[n+]3[O-])c2)cc1` (stereo not drawn) [Example P14], the IC50 was determined as 966 nM at human plasma kallikrein (setting [1]) and 94.4 nM at Factor XIa.

Regarding `COC(=O)Nc1ccc(-c2cnn(C(Cc3ccc(F)cc3)c3ccc(-c4cc(Cl)ccc4C#N)c[n+]3[O-])c2)cc1` (stereo not drawn) [Example Q1], the IC50 at human plasma kallikrein (setting [1]) is 355 nM; at Factor XIa, 621 nM.

`Nc1ccc(-c2cnn(C(CC3CC3)c3ccc(-c4cc(Cl)ccc4-n4cnnn4)c[n+]3[O-])c2)c(Cl)n1` (single isomer, unassigned) [Example P49]: the 50% inhibitory concentration (IC50) stood at 79.2 nM at human plasma kallikrein (setting [1]) and 3.4 nM at Factor XIa.

As to `COC(=O)Nc1ccc(-c2cnn(C(Cc3ccccc3)c3ccc(-c4cc(Cl)ccc4-n4cnnn4)c[n+]3[O-])c2)cc1` (stereo not drawn) [Example P39], the IC50 at human plasma kallikrein (setting [1]) turned out to be 25.8 nM; at Factor XIa, 3.8 nM.

Take `COC(=O)Nc1ccc(-c2cnn(C(CC3CC3)c3c(F)cc(-c4c(-n5cnnn5)ccc(Cl)c4F)c[n+]3[O-])c2)cc1` (stereo not drawn) [Example P30]: the IC50 on human plasma kallikrein (setting [1]) came to 57.3 nM; on Factor XIa, 3.3 nM.

Turning to `Nc1ccc(-c2cnn(C(Cc3ccccc3)c3ccc(-c4cc(Cl)ccc4-n4cnnn4)c[n+]3[O-])c2)c(Cl)n1` (stereo not drawn) [Example P50], the IC50 at human plasma kallikrein (setting [1]) worked out at 46.5 nM; on Factor XIa it was 3.5 nM.

For `O=C(O)c1cccc(-c2cnn(C(CC3CC3)c3c(F)cc(-c4cc(Cl)ccc4-n4cnnn4)c[n+]3[O-])c2)c1` (stereo not drawn) [Example P11], the IC50 stood at 81.4 nM at human plasma kallikrein (setting [1]) and 6.9 nM at Factor XIa.

Take `O=C(O)c1ccc(-c2cnn(C(CC3CC3)c3ccc(-c4cc(Cl)ccc4-n4cc(Cl)nn4)c[n+]3[O-])c2)cc1` (stereo not drawn) [Example P4]: the IC50 at human plasma kallikrein (setting [1]) stood at 517 nM; at Factor XIa, 9.9 nM.

On to `[O-][n+]1cc(-c2cc(Cl)ccc2-n2cnnn2)ccc1C(Cc1ccc(F)cc1)n1cc(-c2ccc(F)cc2)cn1` (stereo not drawn) [Example P22], for which the concentration for half-maximal inhibition (IC50) at human plasma kallikrein (setting [1]) was found to be 44.2 nM; at Factor XIa it was 10 nM.

As to `CC(C)(C)OCCC(c1ccc(-c2cc(Cl)ccc2-n2cnnn2)c[n+]1[O-])n1cc(-c2ccc(C(=O)O)cc2)cn1` (stereo not drawn) [Example P8], the IC50 on human plasma kallikrein (setting [1]) is 329 nM; on Factor XIa it was 2.7 nM.

In the case of `CN1CCc2cc(-c3cnn(C(CC4CC4)c4ccc(-c5cc(Cl)ccc5-n5cnnn5)c[n+]4[O-])c3)ccc2C1=O` (stereo not drawn) [Example P15], the IC50 was 598 nM on human plasma kallikrein (setting [1]) and 55.6 nM at Factor XIa.

Turning to `O=C(O)c1ccc(-c2cnn(C(c3cn(-c4ccccc4)nn3)c3ccc(-c4c(-n5cnnn5)ccc(Cl)c4F)c[n+]3[O-])c2)cc1` (stereo not drawn) [Example P35], the 50% inhibitory concentration (IC50) at human plasma kallikrein (setting [1]) is 800 nM; at Factor XIa it was 169 nM.

With `Nc1ccc(-c2cnn(C(CC3CC3)c3ccc(-c4c(-n5cnnn5)ccc(Cl)c4F)c[n+]3[O-])c2)cc1` (stereo not drawn) [Example P21], the IC50 on human plasma kallikrein (setting [1]) amounted to 166 nM; on Factor XIa it was 10.1 nM.

Take `Nc1ccc(-c2cnn(C(CC3CC3)c3ccc(-c4cc(Cl)ccc4-n4cnnn4)c[n+]3[O-])c2)c(Cl)n1` (stereo not drawn) [Example P19]: the values for the IC50 at human plasma kallikrein (setting [1]) and at Factor XIa were 135 nM and 3.4 nM, respectively.

On to `O=C1OCc2cc(-c3cnn(C(CC4CC4)c4ccc(-c5cc(Cl)ccc5-n5cnnn5)c[n+]4[O-])c3)ccc21` (stereo not drawn) [Example P16], for which the IC50 on human plasma kallikrein (setting [1]) amounted to 401 nM; on Factor XIa, 56.1 nM.

On to `Nc1ccc(-c2cnn(C(CC3CC3)c3ccc(-c4c(-n5cnnn5)ccc(Cl)c4F)c[n+]3[O-])c2)c[n+]1[O-]` (stereo not drawn) [Example P25], for which the IC50 at human plasma kallikrein (setting [1]) was determined as 749 nM; on Factor XIa, 9 nM.

Take `CN1Cc2cc(-c3cnn(C(CC4CC4)c4ccc(-c5cc(Cl)ccc5-n5cnnn5)c[n+]4[O-])c3)ccc2C1=O` (stereo not drawn) [Example P12]: the IC50 on human plasma kallikrein (setting [1]) is 370 nM; on Factor XIa, 71.7 nM.

Take `O=C(O)c1ccc(-c2cnn([C@H](CC3CC3)c3ccc(-c4cc(Cl)ccc4-n4cnnn4)c[n+]3[O-])c2)cc1` [Example P6]: the IC50 at human plasma kallikrein (setting [1]) is 65.8 nM; at human plasma kallikrein (setting [2]) it was 85.2 nM; at Factor XIa, 2.1 nM.

As to `[O-][n+]1cc(-c2c(-n3cnnn3)ccc(Cl)c2F)ccc1C(CC1CC1)n1cc(-c2ncns2)cn1` (stereo not drawn) [Example P525], the concentration for half-maximal inhibition (IC50) at human plasma kallikrein (setting [2]) was determined as 812 nM.

For `Nc1ncc(-c2cnn([C@H](CC3CC3)c3ccc(-c4c(-n5cnnn5)ccc(Cl)c4F)c[n+]3[O-])c2)s1` [Example P614], the IC50 on human plasma kallikrein (setting [2]) was 8 nM.

`COC(=O)Nc1ccc(-c2cnn(C(CC3CCCO3)c3ccc(-c4c(-n5cnnn5)ccc(Cl)c4F)c[n+]3[O-])c2)cc1` (stereo not drawn) [Example P203]: on human plasma kallikrein (setting [2]), the half-maximal inhibitory concentration (IC50) was determined as 63.3 nM.

As to `O=C(C1CC1CC(c1ccc(-c2c(-n3cnnn3)ccc(Cl)c2F)c[n+]1[O-])n1cc(-c2ccccc2)cn1)N1CCC(c2ccccc2)C1` (stereo not drawn) [Example P196], the half-inhibitory concentration (IC50) on human plasma kallikrein (setting [2]) came to 995 nM.

On to `[O-][n+]1cc(-c2c(-n3cc(Cl)nn3)ccc(Cl)c2F)ccc1C(Cn1cc(F)cn1)n1cc(-c2ccnc(C(F)(F)F)c2)cn1` (single isomer, unassigned) [Example P480], for which the IC50 on human plasma kallikrein (setting [2]) is 31.2 nM.

`[O-][n+]1cc(-c2c(-n3cnnn3)ccc(Cl)c2F)ccc1[C@H](Cc1cn(C(F)F)nn1)n1cc(-c2ccnc(C(F)(F)F)c2)cn1` [Example P746]: at human plasma kallikrein (setting [2]), the IC50 worked out at 588 nM.

As for `COC(=O)Nc1ccc(-c2cnn(C(CC3CC3C(=O)N3CCCC(c4ccccc4)C3)c3ccc(-c4c(-n5cnnn5)ccc(Cl)c4F)c[n+]3[O-])c2)cc1` (stereo not drawn) [Example P222], the half-maximal inhibitory concentration (IC50) on human plasma kallikrein (setting [2]) was 189 nM.

`Nc1ccc(-c2cnn(C(Cn3cccn3)c3ccc(-c4c(-n5cnnn5)ccc(Cl)c4F)c[n+]3[O-])c2)c(F)n1` (single isomer, unassigned) [Example P315]: the IC50 on human plasma kallikrein (setting [2]) came to 51 nM.

Turning to `COc1cc(C(CC2CC2)n2cc(-c3cnn(C)c(=O)c3)cn2)[n+]([O-])cc1-c1c(C#N)ccc(Cl)c1F` (single isomer, unassigned) [Example Q10], at human plasma kallikrein (setting [2]), the half-maximal inhibitory concentration (IC50) turned out to be 375 nM.

With `O=C(O)c1ccc(-c2cnn(C(CC3CC3C(=O)N3CCCC3)c3ccc(-c4cc(Cl)ccc4-n4cnnn4)c[n+]3[O-])c2)cc1` (stereo not drawn) [Example P106], the IC50 at human plasma kallikrein (setting [2]) is 635 nM.

As to `O=c1ccccn1CC(c1ccc(-c2c(-n3cnnn3)ccc(Cl)c2F)c[n+]1[O-])n1cc(-c2ccnc(C(F)(F)F)c2)cn1` (stereo not drawn) [Example P358], the IC50 on human plasma kallikrein (setting [2]) is 81.9 nM.

On to `Cn1nncc1-c1cnn([C@@H](Cc2ccc(C(F)(F)F)nc2)c2ccc(-c3c(-n4cc(Cl)nn4)ccc(Cl)c3F)c[n+]2[O-])c1` [Example P773], for which the IC50 on human plasma kallikrein (setting [2]) stood at 4210 nM.

For the compound `[O-][n+]1cc(-c2cc(Cl)ccc2-n2cnnn2)ccc1C(Cc1ccc(Cl)cc1)n1cc(-c2ccncc2F)cn1` (stereo not drawn) [Example P174], the 50% inhibitory concentration (IC50) on human plasma kallikrein (setting [2]) came out at 50.8 nM.

Take `CCOc1cc(C(CC2CC2)n2cc(-c3ncnn3C)cn2)[n+]([O-])cc1-c1cc(Cl)ccc1-n1cc(C(F)(F)F)nn1` (single isomer, unassigned) [Example P945]: the IC50 on human plasma kallikrein (setting [2]) was 324 nM.

For `CN(CC(c1ccc(-c2c(-n3cnnn3)ccc(Cl)c2F)c[n+]1[O-])n1cc(-c2ccnc(F)c2)cn1)C(=O)C(C)(C)C` (stereo not drawn) [Example P426], the half-maximal inhibitory concentration (IC50) on human plasma kallikrein (setting [2]) is 53.6 nM.

For `NC(=O)c1ccc(-c2cnn(C(CCOC(F)F)c3ccc(-c4c(-n5cc(Cl)nn5)ccc(Cl)c4F)c[n+]3[O-])c2)cc1F` (single isomer, unassigned) [Example P875], the IC50 at human plasma kallikrein (setting [2]) turned out to be 2.7 nM.

Take `[2H]C([2H])(C[C@H](c1ccc(-c2c(-n3cc(C(F)(F)F)nn3)ccc(Cl)c2F)c[n+]1[O-])n1cc(-c2ncnn2C)cn1)OC(F)F` [Example P820]: the IC50 at human plasma kallikrein (setting [2]) worked out at 68.8 nM.

Regarding `COc1ccc(CC(c2ccc(-c3cc(Cl)ccc3-n3cnnn3)c[n+]2[O-])n2cc(-c3ccc(C(=O)O)cc3)cn2)cc1` (stereo not drawn) [Example P64], the IC50 on human plasma kallikrein (setting [2]) is 5.3 nM.

As for `[O-][n+]1cc(-c2c(-n3cnnn3)ccc(Cl)c2F)ccc1C(CCOC(F)F)n1cc(-c2ccncc2F)cn1` (stereo not drawn) [Example P385], the half-inhibitory concentration (IC50) on human plasma kallikrein (setting [2]) was 3.5 nM.

On to `COc1cc(C(Cc2ccn(C(F)F)n2)n2cc(-c3ccc(C(N)=O)c(F)c3)cn2)[n+]([O-])cc1-c1cc(Cl)ccc1C(C)=O` (single isomer, unassigned) [Example Q77], for which the IC50 at human plasma kallikrein (setting [2]) is 9.8 nM.

In the case of `O=c1ccccn1CC(c1ccc(-c2c(-n3cnnn3)ccc(Cl)c2F)c[n+]1[O-])n1cc(-c2cc[n+]([O-])c(C(F)F)c2)cn1` (single isomer, unassigned) [Example P373], the IC50 at human plasma kallikrein (setting [2]) worked out at 161 nM.

These data come from patent publication US11814364B2, “Pyridine N-oxide derivatives useful as factor XIa inhibitors” (Janssen Pharmaceutica NV, priority 2021, dated 2023).
